The test system of one assay is tryptophan uptake. In words: Tryptophan uptake inhibition (tryptophan uptake method).
The test system of a further assay is alpha-helical S-protein. In words: Intracranial self-stimulation (bar pressing) in rats given alpha-helical S-protein. It is filed as in vivo. Particulars: for Bar Presses Restoration %: alpha-helical S-protein intercisternally, polypeptide 0.2 mg/kg intramuscularly.
Assay [1] deals with S-protein of schizophrenics. Nature of the assay: Conversion of alpha-helical S-protein to random chain conformation. It is filed as biochemical, human.
Assay [2] can be described thus: Activity useful for alleviating the symptoms of schizophrenia (test not specified). How it is done:
Following essentially the same procedures as described above, N-acetyl-tyrosylthreonylvalylleucine, prolylthreonylvalylleucylprolylglycine are tested to determine their effect on rats which have been administered the alpha-helical S-protein.

The source of these data is US4146614A, “Threonyl-valyline leucine containing peptides and pharmaceutical compositions” (State of Michigan, priority 1977, dated 1979).

Non-standard residues stand in square brackets, D forms with d. Residues, ends and D or L forms follow the SMILES beside them. *: point of attachment. Bn = c1ccc(C*)cc1

Method for tryptophan uptake: Each of the resultant 10 fractions is assayed according to the tryptophan uptake method described in Biological Psychiatry, Vol. 7, No. 1, p. 53, (1973) as an indication of the amount of anti-S protein factor therein.
Tryptophan uptake are also conducted for the tested polypeptides. The tryptophan uptake inhibition is determined at 10 minutes.

Regarding `CC(C)C[C@H](NC(=O)[C@@H](NC(=O)[C@@H](NC(=O)[C@@H](C)N)[C@@H](C)O)C(C)C)C(=O)O` [D-Alanyl-L-threonyl-L-valyl-L-leucine] (H-[dA]TVL-OH), the “duration of tryptophan uptake inhibition (in words)” value with tryptophan uptake (10, 15 and 30 minutes) is recorded as “after a period of time the inhibition of tryptophan uptake may be diminished”. The “Tryptophan Uptake Inhibition %” value amounted to 16% with tryptophan uptake (15 min.), 0% with tryptophan uptake (30 min.) and 15% in the assay with tryptophan uptake (determined at 10 minutes).
Take `NCC(=O)NCC(=O)NCC(=O)O` [Glycylglycylglycine, reference compound] (H-Gly-Gly-Gly-OH): the “Bar Presses Restoration %” value in the assay on alpha-helical S-protein (rats) worked out at 3%. In addition, the “Tryptophan Uptake Inhibition %” value in the assay with tryptophan uptake (determined at 10 minutes) came out at 0%.
As for `CC(C)C[C@H](NC(=O)[C@@H](NC(=O)[C@@H](NC(=O)CN)[C@@H](C)O)C(C)C)C(=O)O` [Glycylthreonylvalylleucine] (H-GTVL-OH), in the assay on alpha-helical S-protein (rats), the “Bar Presses Restoration %” value is 100%. Further, the “Tryptophan Uptake Inhibition %” value in the assay with tryptophan uptake (determined at 10 minutes) was determined as 24.3%.
Take `CC(C)C[C@@H](NC(=O)[C@@H](NC(=O)[C@@H](N)[C@@H](C)O)C(C)C)C(=O)O` [L-Threonyl-L-valyl-D-leucine] (H-Thr-Val-[dL]-OH): the “Tryptophan Uptake Inhibition %” value is recorded as 18% in the assay on tryptophan uptake (15 min.), 21% with tryptophan uptake (30 min.) and 12% in the assay on tryptophan uptake (determined at 10 minutes).
With `CC(C)C[C@H](NC(=O)[C@@H](NC(=O)[C@@H](N)[C@@H](C)O)C(C)C)C(=O)N[C@H](C)C(=O)O` [L-Threonyl-L-valyl-L-leucyl-D-alanine] (H-TVL[dA]-OH), in the assay with tryptophan uptake, the “tryptophan uptake activity (in words)” value is “without significant tryptophan uptake activity”. In addition, the “Tryptophan Uptake Inhibition %” value with tryptophan uptake (determined at 10 minutes) was found to be 2%.
Turning to `CC(=O)N[C@H](C(=O)N[C@H](C(=O)N[C@@H](CC(C)C)C(N)=O)C(C)C)[C@@H](C)O` [N-Acetyl-threonylvalylleucinamide] (Ac-Thr-Val-Leu-NH2), the “Bar Presses Restoration %” value in the assay with alpha-helical S-protein (rats) was 100%. For the same molecule, the “Tryptophan Uptake Inhibition %” value with tryptophan uptake (determined at 10 minutes) is listed as 56.5%.
As to `CC(=O)N[C@H](C(=O)N[C@H](C(=O)N[C@@H](CC(C)C)C(=O)O)C(C)C)[C@@H](C)O` [N-Acetyl-threonylvalylleucine] (Ac-Thr-Val-Leu-OH), the “Bar Presses Restoration %” value in the assay with alpha-helical S-protein (rats) stood at 100%. The “Tryptophan Uptake Inhibition %” value in the assay with tryptophan uptake (determined at 10 minutes) amounted to 20.2%.
For `CC(C)C[C@H](NC(=O)[C@@H](NC(=O)[C@@H](N)[C@@H](C)OCc1ccccc1)C(C)C)C(N)=O` [O-Benzyl-threonylvalylleucinamide] (H-Thr(Bn)-Val-Leu-NH2), in the assay on alpha-helical S-protein (rats), the “Bar Presses Restoration %” value is reported as “toxic”. Besides, the “Tryptophan Uptake Inhibition %” value with tryptophan uptake (determined at 10 minutes) is recorded as 0%.
As for `CC(C)C[C@H](NC(=O)[C@@H](NC(=O)[C@@H](NC(=O)[C@@H]1CCCN1C(=O)[C@@H](N)Cc1ccccc1)[C@@H](C)O)C(C)C)C(=O)N1CCC[C@H]1C(=O)N[C@@H](Cc1ccccc1)C(=O)O` [Phenylalanylprolylthreonylvallylleucylprolyl phenylalanine] (H-FPTVLPF-OH), the “Bar Presses Restoration %” value with alpha-helical S-protein (rats) stood at 100%. Besides, the “Tryptophan Uptake Inhibition %” value in the assay on tryptophan uptake (determined at 10 minutes) amounted to 39.5%.
For `CC(C)C[C@H](NC(=O)[C@@H](NC(=O)[C@@H](NC(=O)[C@@H]1CCCN1)[C@@H](C)O)C(C)C)C(=O)N1CCC[C@H]1C(=O)NCC(=O)O` [Prolylthreonylvalylleucylprolylgylcine] (H-PTVLPG-OH), the “restoration of the bar pressing activity of the rats (in words)” value in the assay with alpha-helical S-protein (rats administered the alpha-helical S-protein) is on record as “restores the bar pressing activity of the rats”. Moreover, in the assay on tryptophan uptake (determined at 10 minutes), the “Tryptophan Uptake Inhibition %” value is 44.2%.
As to `CC[C@H](C)[C@H](NC(=O)[C@@H](NC(=O)[C@@H](N)[C@@H](C)O)C(C)C)C(=O)O` [Threonylvalylisoleucine] (H-Thr-Val-Ile-OH), the “Bar Presses Restoration %” value with alpha-helical S-protein (rats) amounted to 41%. Also, the “Tryptophan Uptake Inhibition %” value with tryptophan uptake (determined at 10 minutes) worked out at 5.6%.
For the molecule `CC(C)C[C@H](NC(=O)[C@@H](NC(=O)[C@@H](N)[C@@H](C)O)C(C)C)C(N)=O` [Threonylvalylleucinamide] (H-Thr-Val-Leu-NH2), the “Bar Presses Restoration %” value with alpha-helical S-protein (rats) was found to be 90%. Also, the “Tryptophan Uptake Inhibition %” value in the assay with tryptophan uptake (determined at 10 minutes) amounted to 21.6%.
In the case of `CC(C)C[C@H](NC(=O)[C@@H](NC(=O)[C@@H](N)[C@@H](C)O)C(C)C)C(=O)O` [Threonylvalylleucine] (H-Thr-Val-Leu-OH), in assay [1], the “activity against the S-protein of schizophrenics (conformation change, in words)” value is “the alpha-helical conformation of the S-protein is converted to the random form”. In the assay on alpha-helical S-protein (rats), the “period of effectiveness in counteracting the effect of the S-protein” value is given as “of short duration” and the “Bar Presses Restoration %” value is 85%. The “Tryptophan Uptake Inhibition %” value in the assay with tryptophan uptake (determined at 10 minutes) came to 19.8%.
Regarding `CC(C)C[C@H](NC(=O)[C@@H](NC(=O)[C@@H](N)[C@@H](C)O)C(C)C)C(=O)N[C@@H](CCCNC(=N)N)C(=O)O` [threonylvalylleucylarginine] (H-TVLR-OH), the “activity useful for alleviating the symptoms of schizophrenia (in words)” value in assay [2] is on record as “exhibiting activity useful for alleviating the symptoms of schizophrenia”.
“N-α-Acetyl-Threonylvalyleucine, methyl ester”: the “Tryptophan Uptake Inhibition %” value in the assay with tryptophan uptake (determined at 10 minutes) came out at 24.2%.
